# Patent US20250099428A1, “USE OF BENZISOSELENAZOLE COMPOUND IN PREPERATION OF DRUG FOR TREATMENT OF SPINAGLIOMA” (Beijing Neurosurgical Institute, priority 2022, published 2025)
# “Also recorded” adds a separate entry of the source.
# Legend:
# Spinaglioma cells SP0001 = test: CCK8 cell proliferation inhibition, spinaglioma cells SP0001; type: cell-based, human; conditions: for growth inhibition / killing effect on SP0001 cells: CCK8, cytarabine 24, 48, 96 hours, BS 24, 48 hours
# Experimental: (§1) Spinaglioma cells SP0001 in a logarithmic growth phase were digested with trypsin and centrifuged to obtain a cell precipitate, and cells were counted after being re-suspended in a complete medium. Based on the count results, the cells SP0001 were inoculated into a 96-well cell culture plate with 5000 cells per well and cultured in a 37° C. incubator in a 5% CO2 environment. After 24 hours, the cells were treated with drugs. Atemozolomide (TMZ) compound and a benzisoselenazole compound (BS) of the present invention were respectively dissolved in DMSO to prepare a stock solution, which was then dissolved with the complete medium to different drug concentrations. The gradient concentrations of TMZ were 0, 100, 150, 200, 250, 300, 350, and 400 μM. The gradient concentrations of BS were 0, 1, 2, 3, 4, 5, 6, 7, and 8 μM. The medium was removed from the wells, and the corresponding drug solution of each concentration was added with 100 μL per well.
# […] When testing, a CCK8 working solution was prepared in advance, namely, an appropriate volume of working solution was prepared based on 100 μL serum-free medium and 10 μL CCK8 per well, and the working solution was placed in dark. The well plate was taken out of the incubator, the cell medium was removed from the wells to be tested, 110 μL of CCK8 working solution was added to each well, the incubation was continued for 2 hours, then the absorbance at 450 nm was measured on an enzyme-linked immunosorbent assay (ELISA) reader, an inhibition rate corresponding to each concentration was calculated, and IC50 values at corresponding time were calculated using GraphPad 7.0 software.
# This example measured the killing effects of a cytarabine compound and the BS compound of the present invention on two types of spinaglioma cell lines SCA-S01 and SP0001, using the same method as Example 1.
# SCA-S01 cells = test: CCK8 cell proliferation inhibition, spinaglioma cells SCA-S01; type: cell-based, human; conditions: cytarabine 24, 48, 96 hours, BS 24, 48 hours
# Experimental: as §1, with “The medium was removed from the wells, and the corresponding drug solution of each concentration was added with 100 μL per well.” left out
# The well plate was put back into the incubator, and cell proliferation was tested after 24 and 48 hours, respectively. […] The well plate was taken out of the incubator, the cell medium was removed from the wells to be tested, 110 μL of CCK8 working solution was added to each well, the incubation was continued for 2 hours, then the absorbance at 450 nm was measured on an enzyme-linked immunosorbent assay (ELISA) reader, an inhibition rate corresponding to each concentration was calculated, and IC50 values at corresponding time were calculated using GraphPad 7.0 software. […]
# [1] = system: SP0001 human-derived spinaglioma tumor; test: SP0001 tumor-bearing NPG mouse model, tumor growth inhibition; type: in vivo, NPG immunodeficient mice; conditions: for tumor volume inhibition rate: end of experiment; for tumor size at end of experiment: intragastric once a day, 24 days
# Experimental: (§2) First, a tumor-bearing mouse model was built. Female NPG immunodeficient mice (6-8 weeks, starting weight 16-21 g, purchased from Beijing Vitalstar Biotechnology Co., Ltd.) were used for experimental research. The animals were raised and operated under sterile conditions, and all animal experiments were conducted in accordance with the international guidelines for animal experimentation. SP0001 human-derived spinaglioma tumor blocks (2-3 mm^3) were prepared and inoculated subcutaneously to the right ventrodorsal side of each NPG mouse. After inoculation, the status of the mice was observed, and the size of the tumor was measured. The animals with a tumor volume of 40 mm^3 were selected for experiment, and the animals that had too large tumor and no tumor were not selected. A total of 40 suitable tumor-bearing animals were selected for the experiment and divided into 5 experimental groups, with 8 mice in each group. The first day of administration was recorded as D1, the second day of administration was recorded as D2, and so on. All the animals were administered intragastrically once a day for 24 consecutive days. […] In the experiment, the physiological saline group was used as a negative control, and the temozolomide (TMZ) treatment group was used as a positive control.
# [2] = Body weight and toxicity in tumor-bearing NPG mice; type: in vivo, NPG immunodeficient mice; conditions: for toxic and side effects on NPG mice: intragastric once a day, 24 days, BS: BSM and BSH groups, TMZ 30 mg/Kg
# Experimental: as §2
# During the experiment, no clinical abnormal symptoms or animal deaths due to drug toxicity were observed.
# The histogram of the weight change rate of NPG mice after administration was shown in FIG. 9 (BSL, BSM, and BSH represent a low dose group 90 mg/Kg, a medium dose group 180 mg/Kg, and a high dose group 360 mg/Kg of the drug BS respectively).
# [3] = system: primary spinaglioma cell line SP0001; test: Live and dead cell fluorescence staining of SP0001 cells; type: cell-based, human; conditions: 6 μM, treated 48 hours
# Experimental: Fluorescence staining was performed using live and dead cell staining technology on the primary spinaglioma cell line SP0001 treated with the benzisoselenazole compound for 48 hours.
# [4] = SP0001 cells, CCK8, 24 and 48 hours
SMILES,growth inhibition / killing effect on SP0001 cells (Spinaglioma cells SP0001),killing effect on SCA-S01 cells (SCA-S01 cells),tumor volume inhibition rate ([1]; TMZ group 30 mg/Kg) [%],tumor size at end of experiment ([1]; TMZ group 30 mg/Kg) [mm^3],weight loss compared to the Control group (decrease) ([2]; TMZ group 30 mg/Kg),toxic and side effects on NPG mice [2],inhibitory effect on proliferation of patient-derived spinaglioma cell line (Spinaglioma cells SP0001; [4]),sensitivity of patient-derived spinaglioma to the compound (Spinaglioma cells SP0001; [4]),killing effect [3] [%],tumor volume inhibition rate ([1]; BS high dose 360 mg/Kg) [%],tumor volume inhibition rate ([1]; BS low dose 90 mg/Kg) [%],tumor volume inhibition rate ([1]; BS medium dose 180 mg/Kg) [%],tumor size at end of experiment ([1]; BSH high dose 360 mg/Kg) [mm^3],tumor size at end of experiment ([1]; BSL low dose 90 mg/Kg) [mm^3],tumor size at end of experiment ([1]; BSM medium dose 180 mg/Kg) [mm^3],weight change during administration ([2]; BSM and BSH groups (180 and 360 mg/Kg))
"Nc1ccn([C@@H]2O[C@H](CO)[C@@H](O)[C@@H]2O)c(=O)n1 [cytarabine, reference compound]",cannot significantly inhibit the growth,weak killing effect,,,,,,,,,,,,,,
"Cn1nnc2c(C(N)=O)ncn2c1=O [TMZ, temozolomide, reference compound]",,,82.59,26.61±10.30,over 20%,significant toxic and side effects; also recorded: obvious toxicity,,,,,,,,,,
O=c1c2ccccc2[se]n1CCCCn1[se]c2ccccc2c1=O [BS],significant killing effect,strong killing effects,,,,no significant toxic and side effects,obvious inhibitory effect,sensitive,90,45.99,14.01,25.89,82.56±41.40,131.44±39.81,113.29±57.21,did not show any weight loss; also recorded: no significant change in body weight
